Data taken from patent US7094899B2, “Vitreous form of known bradykinin antagonist” (Astellas Pharma Inc., priority 1998, dated 2006).

Tests used:
[1] = background art statement; cited from earlier work
[2] = Stability test of the vitreous form milled mechanically; type: physicochemical
[3] = Solubility test (JP XIII dissolution test, paddle method); type: physicochemical; details: 900 ml distilled water, paddle 50 rpm; compared with crystal types A, B, C and mixture A+C of FR173657 hydrate (FIG. 6)
Procedure: A solubility test was performed in conformity with the Japanese Pharmacopoeia(JP) XIII dissolution test, paddle method. As the test solution, 900 ml of distilled water was used. The paddle speed was set to 50 rpm. The vitreous form of FR173657 ([…]) was added to the test solution and 10 ml aliquots of the test solution were taken as samples in each measurement. Each sample was filtered through a 0.45 μm filter and analyzed by high-performance liquid chromatography.
As a control, crystal type A, crystal type B, crystal type C and a mixture of crystal types A and C of FR173657 hydrate were used.

[4] = 25° C. Relative humidity: 60%, 3 Months
[5] = 30° C. Relative humidity: 75%, 3 Months
[6] = 40° C. Relative humidity: 75%, 3 Months

CC(=O)Nc1ccc(/C=C/C(=O)NCC(=O)N(C)c2ccc(Cl)c(COc3cccc4ccc(C)nc34)c2Cl)cn1 [amorphous form, 8-[3-[N-[(E)-3-(6-acetamidopyridin-3-yl)acryloylglycyl]-N-methylamino]-2,6-dichlorobenzyloxy]-2-methylquinoline]
Solid stability [1]: poor

CC(=O)Nc1ccc(/C=C/C(=O)NCC(=O)N(C)c2ccc(Cl)c(COc3cccc4ccc(C)nc34)c2Cl)cn1 [vitreous form of FR173657, 8-[3-[N-[(E)-3-(6-acetamidopyridin-3-yl)acryloylglycyl]-N-methylamino]-2,6-dichlorobenzyloxy]-2-methylquinoline]
Appearance [2, 4]: Pale
Form DSC [2, 4]: Vitreous
Form Powder X-ray [2, 4]: Vitreous
Residual (%) [2, 4]: 102.1%
Appearance [2, 5]: Pale
Form DSC [2, 5]: Vitreous
Form Powder X-ray [2, 5]: Vitreous
Residual (%) [2, 5]: 102.1%
Appearance [2, 6]: Pale
Form DSC [2, 6]: Vitreous
Form Powder X-ray [2, 6]: Vitreous
Residual (%) [2, 6]: 101.2%
Appearance ([2]; 40° C., 3 Months): Pale
Form DSC ([2]; 40° C., 3 Months): Vitreous
Form Powder X-ray ([2]; 40° C., 3 Months): Vitreous
Residual (%) ([2]; 40° C., 3 Months): 100.8%
Appearance ([2]; 50° C., 3 Months): Pale
Form DSC ([2]; 50° C., 3 Months): Vitreous
Form Powder X-ray ([2]; 50° C., 3 Months): Vitreous
Residual (%) ([2]; 50° C., 3 Months): 101.0%
Appearance ([2]; Initial): Pale
Form DSC ([2]; Initial): Vitreous
Form Powder X-ray ([2]; Initial): Vitreous
Residual (%) ([2]; Initial): 100.0%
Stability (crystallization / decomposition) ([2]; under heat, in moisture, through physical treatment, long-term storage): neither crystallizes nor decomposes at all
Solubility [3]: higher solubility
